The values below come from patent US5726188A, “Optically active imidazolidinone derivatives and processes for preparing them” (Kyorin Pharmaceutical Co., Ltd., priority 1993, dated 1998).

In series [1] the test system is pirenzepine-induced amnesia. The experiment in a line: Pirenzepine-induced amnesia, step-through type passive avoidance. The series is classed as in vivo, Std:ddY strain male mice. The following applies: oral; for Reaction latency Mean ± S.E.: 30 or 60 minutes before acquisition trial, pirenzepine-treated mice; for Improvement rate: pirenzepine-induced amnesia. The source says: Testing on the pirenzepine-induced amnesia
For the experiment animals, Std:ddY strain male mice with body weight of 24 to 34 g (age in week: 5-6) (Nippon SLC) were used. For the device, a step-through type passive avoidance apparatus (made by Ohara Medical Co., Ltd.) consisting of two […] and dark rooms was used. In the acquisition trial, mouse was placed in the light room and, 10 seconds later, the partitive guillotine door was opened. As soon as the mouse moved into the dark room, the guillotine door was closed and electric shock of 41 to 45 V was given for 1 second through the metal grid bars of the floor. The retention trial was conducted 24 hours later since then. […] The induction of amnesia was performed by fixing a mouse at prone position without anesthetization at 20 minutes before learning acquisition trial and injecting pirenzepine (10 μg/2 μl/mouse bilaterally into cerebral ventricles using a microsyringe. Moreover, a group not to administered with pirenzepine before acquisition trial (non-amnesia comparison group) was also provided. The mice were made to be 12 to 21 animals per group and the testing compound was administered orally at 30 or 60 minutes before acquisition trial. The improvement rate was calculate according to following equation and the results are shown in Table 5 (refer to: M. P. Callfield et at, J. Pharm. Pharmacol. 1983, 35, 131-132). [formula]
The extension of the reaction latency with compound therefore means the improved amnesia.

A further series has as its system Std:ddY strain male mice. The experiment in a line: In vivo toxicity test, oral administration. The following applies: for common symptoms and death / Convulsion (animals affected) / Death (animals) / dose at which convulsion was observed / dose at which death was observed: 3 days. On the procedure: For the experiment animals, 4 animals per group of Std:ddY strain male mice with body weightOf 26 to 30 g (age in week: 5) (Nippon SLC) were used. The testing compound was suspended into 5 % solution of arabic gum and administered orally. The common symptoms and death caused with compound were recorded for 3 days after administration.

Series [2] addresses T1, M1 type muscarinic cholinergic receptor (Rattus norvegicus, UniProt P08482).
T1 construct: crude synaptic membrane specimen prepared from all brains (except cerebellum and brain stem) of rat; from tissue; host or cells: rat brain without cerebellum and brain stem, crude synaptic membranes
T1 sequence (P08482 1-460): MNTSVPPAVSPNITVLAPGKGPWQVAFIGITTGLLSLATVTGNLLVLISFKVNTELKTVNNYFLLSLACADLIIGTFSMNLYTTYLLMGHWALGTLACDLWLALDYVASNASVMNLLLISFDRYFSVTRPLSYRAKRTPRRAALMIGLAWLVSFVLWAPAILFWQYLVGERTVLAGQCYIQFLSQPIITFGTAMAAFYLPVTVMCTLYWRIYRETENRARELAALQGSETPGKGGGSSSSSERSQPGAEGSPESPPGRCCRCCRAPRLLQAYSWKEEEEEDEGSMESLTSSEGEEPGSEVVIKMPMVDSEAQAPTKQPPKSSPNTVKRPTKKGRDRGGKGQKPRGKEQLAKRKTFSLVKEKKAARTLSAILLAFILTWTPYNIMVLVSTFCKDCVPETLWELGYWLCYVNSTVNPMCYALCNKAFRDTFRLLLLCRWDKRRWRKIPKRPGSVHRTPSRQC
The experiment in a line: Radioligand binding to M1 type muscarinic cholinergic receptor ([^3 H]-pirenzepine). As to conditions: for IC50: rat brain (except cerebellum and brain stem) crude synaptic membrane, [^3 H]-PZ 1 nM, 60 minutes, 25 °C. The protocol: 1) Radioligand binding experiment to M1 type muscarinic cholinergic receptor
Method: To a crude synaptic membrane specimen prepared from all brains (except cerebellum and brain stem) of rat, [^3 H]-pirenzepine ([^3 H]-PZ, final oncentration: 1 nM) and testing compound were added and the mixture was incubated for 60 minutes at 25 ° C. After stopped the reaction by high-speed suction filtration, the radioactivity on filter was measured with liquid scintillation counter. The specific binding level of [^3 H]-pirenzepine was determined by subtracting the nonspecific binding level in the presence of atropine (1 μM) from total binding level. Putting the [^3 H]-pirenzepine binding in the absence of testing compound on 100, the concentration of compound to decrease by 50 % (IC50 value) was made an index of the binding activity of compound to M1 muscarinic receptor (refer to: J. A. D. M. Toner et al, Life Science, 1987, 40, 1981-1987).

Series [3] deals with T2, M2 type muscarinic cholinergic receptor (Rattus norvegicus, UniProt P10980).
T2 construct: crude synaptic membrane specimen was prepared from the brain stem (medulla oblongata-pons) of rat; from tissue; host or cells: rat brain stem (medulla oblongata-pons), crude synaptic membranes
T2 sequence (P10980 1-466): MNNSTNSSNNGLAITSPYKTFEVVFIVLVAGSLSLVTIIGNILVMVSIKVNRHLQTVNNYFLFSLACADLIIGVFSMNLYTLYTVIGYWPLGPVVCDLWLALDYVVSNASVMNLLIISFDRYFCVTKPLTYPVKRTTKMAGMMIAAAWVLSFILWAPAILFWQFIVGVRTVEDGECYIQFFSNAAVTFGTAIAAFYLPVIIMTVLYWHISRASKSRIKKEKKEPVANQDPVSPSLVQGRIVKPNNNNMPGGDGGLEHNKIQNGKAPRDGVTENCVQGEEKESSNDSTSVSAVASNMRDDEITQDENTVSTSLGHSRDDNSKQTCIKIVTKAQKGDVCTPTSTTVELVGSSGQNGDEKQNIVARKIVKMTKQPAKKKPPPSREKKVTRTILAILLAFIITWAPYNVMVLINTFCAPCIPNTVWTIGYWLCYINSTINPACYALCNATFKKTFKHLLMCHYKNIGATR
The experiment in a line: Radioligand binding to M2 type muscarinic cholinergic receptor ([^3 H]-quinuclidyl benzoate). The following applies: rat brain stem crude synaptic membrane, [^3 H]-QNB 0.1 nM.

Series [4] has as its system M1 and M2 muscarinic receptors. As to the kind of experiment: Selectivity to M1 receptor (ratio of IC50 values from the M1 and M2 binding experiments). Further details: species or system rat. The protocol:
3) Selectivity to M1 receptor
This was determined from the ratio of IC50 values of compound obtained from the binding experiments of M1 and M2 muscarinic receptors. [formula]

SMILES strings stand for the structures.

For the molecule `O=C1N(c2ccc(F)cc2)CCN1C1CCCN(Cc2ccccc2)C1` (racemic) [Referential example 8, (±)-1-(4-fluorophenyl)-3-[3-(1-phenylmethyl)piperidyl]-2-imidazolidinone], in series [1] (3 mg/kg), the “Reaction latency Mean ± S.E.” value is 55.1 ± 20.0 s and the Improvement rate was -20.7%. Besides, in series [1] (10 mg/kg), the “Reaction latency Mean ± S.E.” value turned out to be 153.7 ± 27.6 s and the Improvement rate amounted to 33.2%. In the series with Std:ddY strain male mice, the “common symptoms (in words)” value is “convulsive actions were seen”, the “dose at which convulsion was observed” value came out at 600 mg/kg and the “dose at which death was observed” value was determined as 1200 mg/kg. Also, the “common symptoms and death” value in the series on Std:ddY strain male mice (300 mg/kg) is listed as “None”. Besides, the “Convulsion (animals affected)” value with Std:ddY strain male mice (600 mg/kg) is recorded as 3/4. The “Death (animals)” value with Std:ddY strain male mice (1200 mg/kg) is listed as 4/4. The same molecule returned an IC50 in series [2] of 80 nM. The molecule also returned an IC50 in series [3] of 1090 nM.
Take `O=C1N(c2ccc(F)cc2)CCN1[C@@H]1CCCN(Cc2ccccc2)C1` [Example 1, (R)-1-(4-florophenyl)-3-[3-(1-phenylmethyl)piperidyl]-2-imidazolidinone]: the “selectivity to M1 receptor (in words)” value in series [4] (M1 versus M2 receptor) was “far higher selectivity to M1 receptor than to M2 receptor”. The “IC50 (M2)/IC50 (M1)” value in series [4] (ratio of IC50 values, selectivity to M1 receptor) was determined as 16.7. Further, the “Reaction latency Mean ± S.E.” value in series [1] (3 mg/kg) was 91.5 ± 21.4 s; in series [1] (10 mg/kg) it was 133.0 ± 29.3 s; in series [1] (30 mg/kg), 166.9 ± 40.2 s. The Improvement rate in series [1] (3 mg/kg) was 34.3%; in series [1] (10 mg/kg), 77.9%; in series [1] (30 mg/kg) it was 113.6%. Besides, the “improvement effect on the amnesia / disturbance of learning (in words)” value in series [1] (listed as R form) is reported as “could be recognized only for R form with significant difference”; in series [1] (listed as R isomer), “very excellent improvement effect on the amnesia”. Besides, the “common symptoms and death” value is given as “None” in the series with Std:ddY strain male mice (300 mg/kg); “None” in the series with Std:ddY strain male mice (600 mg/kg); “None” with Std:ddY strain male mice (1200 mg/kg); “problems did not arise at any rate” in the series with Std:ddY strain male mice (1200 mg/kg, listed as R form); “such symptom was not caused even at 1200 mg/kg” with Std:ddY strain male mice (1200 mg/kg, listed as compound of the invention). Moreover, in series [2], the “affinity to the central M1 muscarinic receptor (in words)” value is given as “patent affinity to the central M1 muscarinic receptor”. The “in vitro muscarine (M1) activity / affinity relative to S form (Referential example 9)” value in series [2] (compared with S isomer) is on record as “about 120 times”. Besides, in series [2] (compared with racemic form), the “in vitro muscarine (M1) activity / affinity relative to racemic form (Referential example 8)” value is “about 3 times”. The IC50 in series [2] amounted to 30 nM; in series [3], 500 nM.
`O=C1N(c2ccc(F)cc2)CCN1[C@H]1CCCN(Cc2ccccc2)C1` [Referential example 9, (S)-1-(4-fluorophenyl)-3-[3-(1-phenylmethyl)piperidyl]-2-imidazolidinone]: the results for the “Reaction latency Mean ± S.E.” value in series [1] (3 mg/kg), in series [1] (10 mg/kg) and in series [1] (30 mg/kg) were 63.3 ± 32.1 s, 61.5 ± 26.5 s and 113.2 ± 36.2 s, respectively. For the same molecule, the Improvement rate in series [1] (3 mg/kg) is -23.5%; in series [1] (10 mg/kg), -25.0%; in series [1] (30 mg/kg), 18.1%. In addition, in the series with Std:ddY strain male mice, the “common symptoms (in words)” value is “convulsive actions were seen”. The “Convulsion (animals affected)” value in the series on Std:ddY strain male mice (300 mg/kg) is 2/4. In addition, the entries for the “Death (animals)” value in the series on Std:ddY strain male mice (300 mg/kg) and in the series on Std:ddY strain male mice (600 mg/kg) were 1/4 and 4/4, respectively. In addition, the “dose at which convulsion was observed” value with Std:ddY strain male mice is given as not below 300 mg/kg. In the series on Std:ddY strain male mice, the “dose at which death was observed” value is reported as not below 300 mg/kg. Besides, the 50% inhibitory concentration (IC50) is 3700 nM in series [2] and more than 10000 nM in series [3].

For orientation: IC50 means the point on the concentration scale where inhibition reaches its midpoint. A lower IC50 goes with greater potency in that assay.
